# BindingDB's records for doi:10.1016/j.ejmech.2017.04.042 (Laval University, 2017)
# Assays:
# [1] = target: T1, Cytochrome P450 1B1 (Homo sapiens, UniProt Q16678); test: Inhibition of human CYP1B1 expressed in supersomes using ethoxyresorufin as substrate after 20 mins in presence of NADP by Dixon plot analysis
# T1 sequence (Q16678 whole entry): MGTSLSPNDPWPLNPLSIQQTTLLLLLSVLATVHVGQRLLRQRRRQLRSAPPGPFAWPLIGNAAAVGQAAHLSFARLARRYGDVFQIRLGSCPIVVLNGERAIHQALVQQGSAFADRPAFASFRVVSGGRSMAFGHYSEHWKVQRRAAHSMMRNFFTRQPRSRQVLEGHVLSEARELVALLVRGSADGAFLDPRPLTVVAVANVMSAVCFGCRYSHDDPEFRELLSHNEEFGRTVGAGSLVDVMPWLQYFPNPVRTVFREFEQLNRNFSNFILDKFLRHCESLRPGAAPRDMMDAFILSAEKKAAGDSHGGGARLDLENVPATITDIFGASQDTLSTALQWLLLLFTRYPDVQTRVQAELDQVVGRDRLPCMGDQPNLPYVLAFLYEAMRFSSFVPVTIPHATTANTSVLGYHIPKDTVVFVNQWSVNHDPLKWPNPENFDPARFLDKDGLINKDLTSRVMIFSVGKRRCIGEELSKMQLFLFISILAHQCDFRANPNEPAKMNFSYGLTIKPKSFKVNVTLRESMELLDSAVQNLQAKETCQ
# [2] = target: T1, Cytochrome P450 1B1; test: Inhibition of CYP1B1 (unknown origin) expressed in Escherichia coli DH5alpha coexpressing human NADPH-P450 reductase using 7-Ethoxyresorufin as substrate up to 6 mins in presence of NADP+ by spectrofluorometric analysis
# [3] = target: T2, Cytochrome P450 1A1 (Homo sapiens, UniProt P04798); test: Inhibition of CYP1A1 (unknown origin) expressed in Escherichia coli DH5alpha coexpressing human NADPH-P450 reductase using 7-Ethoxyresorufin as substrate up to 6 mins in presence of NADP+ by spectrofluorometric analysis
# T2 sequence (P04798 whole entry): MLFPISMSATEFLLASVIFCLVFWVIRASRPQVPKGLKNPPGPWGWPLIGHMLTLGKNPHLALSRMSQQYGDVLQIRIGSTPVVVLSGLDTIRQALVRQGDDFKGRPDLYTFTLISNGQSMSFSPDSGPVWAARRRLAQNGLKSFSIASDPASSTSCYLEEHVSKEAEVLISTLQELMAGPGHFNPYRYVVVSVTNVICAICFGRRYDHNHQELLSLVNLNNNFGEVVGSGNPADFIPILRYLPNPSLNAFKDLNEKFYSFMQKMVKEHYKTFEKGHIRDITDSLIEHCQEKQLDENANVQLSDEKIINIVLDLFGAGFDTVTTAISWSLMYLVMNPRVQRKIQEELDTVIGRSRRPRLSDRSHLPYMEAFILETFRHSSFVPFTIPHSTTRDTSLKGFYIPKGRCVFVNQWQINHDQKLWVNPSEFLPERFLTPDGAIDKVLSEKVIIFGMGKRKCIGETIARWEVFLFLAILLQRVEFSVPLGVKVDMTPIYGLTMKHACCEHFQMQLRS
# [4] = target: T3, Cytochrome P450 1A2 (Homo sapiens, UniProt P05177); test: ChEBML_1684878
# T3 sequence (P05177 whole entry): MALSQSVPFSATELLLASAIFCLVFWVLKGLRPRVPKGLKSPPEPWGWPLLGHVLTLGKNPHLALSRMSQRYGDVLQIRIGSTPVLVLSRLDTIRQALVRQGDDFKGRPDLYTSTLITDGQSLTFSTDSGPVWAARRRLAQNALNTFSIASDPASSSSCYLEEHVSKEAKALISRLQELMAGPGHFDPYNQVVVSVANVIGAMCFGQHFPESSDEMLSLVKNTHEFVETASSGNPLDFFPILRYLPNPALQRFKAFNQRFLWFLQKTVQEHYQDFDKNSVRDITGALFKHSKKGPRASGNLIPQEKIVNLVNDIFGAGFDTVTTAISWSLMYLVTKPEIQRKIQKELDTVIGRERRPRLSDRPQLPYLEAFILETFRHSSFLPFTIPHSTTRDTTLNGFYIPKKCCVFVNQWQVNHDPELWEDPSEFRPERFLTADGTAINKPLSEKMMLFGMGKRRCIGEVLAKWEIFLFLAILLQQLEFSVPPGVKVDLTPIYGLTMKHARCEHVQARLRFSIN
# Procedure: Competitive inhibition of human liver microsomes CYP1A2 expressed in supersomes coexpressing NADPH-CYP reductase using 7-Ethoxyresorufin as substrate measured every 5 mins for 30 mins in presence of NADPH by fluorescence assay
Structure (SMILES),Ki [1] [nM],IC50 [2] [nM],IC50 [3] [nM],IC50 [4] [nM]
"C[C@]12CC[C@H]3[C@@H](CCC4=CC(=O)CC[C@@]43C)[C@@H]1CC[C@@H]2O [Testosterone, 1]",412000,,,
N#C[Se]Cc1cccc(C[Se]C#N)c1,,130,100,200
